This note sets out measurements from patent US20130123215A1, “2,5-DIOXOIMIDAZOLIDIN-1-YL-3-PHENYLUREA DERIVATIVES AS FORMYL PEPTIDE RECEPTOR LIKE-1 (FPRL-1) RECEPTOR MODULATORS” (ALLERGAN, INC., priority 2011, published 2013).

The structures appear in SMILES notation.

The target of the first experiment is T1, FPRL-1 (Homo sapiens, UniProt P25090).
T1 construct: expressed in transfected cells; host or cells: CHO-Gα16 cells stably expressing FPRL1
T1 sequence (P25090 1-351): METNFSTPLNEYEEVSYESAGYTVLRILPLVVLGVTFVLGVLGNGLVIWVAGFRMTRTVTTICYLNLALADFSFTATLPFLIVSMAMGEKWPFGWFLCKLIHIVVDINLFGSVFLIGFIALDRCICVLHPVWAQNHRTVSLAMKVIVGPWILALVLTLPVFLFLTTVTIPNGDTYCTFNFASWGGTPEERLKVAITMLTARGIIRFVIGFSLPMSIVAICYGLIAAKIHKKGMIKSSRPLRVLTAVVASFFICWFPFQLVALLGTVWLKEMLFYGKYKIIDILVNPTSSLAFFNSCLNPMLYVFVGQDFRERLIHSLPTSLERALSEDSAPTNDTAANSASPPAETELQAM
Nature of the experiment: FPRL-1 Ga16-CHO compound-induced calcium activity (FLIPR Tetra). Format: cell-based. The note with it: CHO-Gα16 cells stably expressing FPRL1; calcium activity on FLIPR Tetra; tested at 0.61 to 10,000 nM; read-out: FPRL-1 Ga16-CHO EC50. Here is the method:
HEK-Gα16 and CHO-Gα16 cells stably expressing FPRL1 were cultured in (F12, 10% FBS, 1% PSA, 400 μg/ml geneticin and 50 μg/ml hygromycin) and HEK-Gqi5 cells stable expressing FPR1 were cultured in (DMEM high glucose, 10% FBS, 1% PSA, 400 μg/ml geneticin and 50 μg/ml hygromycin). In general, the day before the experiment, 18,000 cells/well were plated in a 384-well clear bottom poly-d-lysine coated plate. The following day the screening compound-induced calcium activity was assayed on the FLIPR^Tetra. The drug plates were prepared in 384-well microplates using the EP3 and the MultiPROBE robotic liquid handling systems. Compounds were tested at concentrations ranging from 0.61 to 10,000 nM. Results are expressed as EC50 (nM) and efficacy values.
The EC50 is the concentration giving half of the maximal effect. Consider `CC1(CCc2ccc(C(=O)O)cc2)NC(=O)N(NC(=O)Nc2ccc(Br)cc2)C1=O` (stereo not drawn) [Compound 77, 4-(2-(1-(3-(4-Bromophenyl)ureido)-4-methyl-2,5-dioxoimidazolidin-4-yl)ethyl)benzoic acid], for which the concentration for a half-maximal effect (EC50) amounted to 210 nM.

With `CC1(CCc2ccccc2C(=O)O)NC(=O)N(NC(=O)Nc2ccc(Br)cc2)C1=O` (stereo not drawn) [Compound 78, 2-(2-(1-(3-(4-Bromophenyl)ureido)-4-methyl-2,5-dioxoimidazolidin-4-yl)ethyl)benzoic acid], the EC50 turned out to be 17.2 nM.

With `CCC1(CCc2ccccc2C(=O)O)NC(=O)N(NC(=O)Nc2ccc(Br)cc2F)C1=O` (stereo not drawn) [Compound 80, 2-[2-(1-{[(4-Bromo-2-fluorophenyl)carbamoyl]amino}-4-ethyl-2,5-dioxoimidazolidin-4-yl)ethyl]benzoic acid], the EC50 worked out at 11.1 nM.

For `CC(C)C1(CC(=O)O)NC(=O)N(NC(=O)Nc2ccc(Br)cc2)C1=O` (stereo not drawn) [Compound 81, 2-(1-(3-(4-Bromophenyl)ureido)-4-isopropyl-2,5-dioxoimidazolidin-4-yl)acetic acid], the EC50 turned out to be 459 nM.

Consider `CC(C)C1(CC(=O)O)NC(=O)N(NC(=O)Nc2ccc(Br)cc2F)C1=O` (stereo not drawn) [Compound 82, 2-(1-(3-(4-Bromo-2-fluorophenyl)ureido)-4-isopropyl-2,5-dioxoimidazolidin-4-yl)acetic acid], for which the EC50 turned out to be 713 nM.

For `CC(C)C1(CC(=O)NCCO)NC(=O)N(NC(=O)Nc2ccc(Br)cc2)C1=O` (stereo not drawn) [Compound 84, 2-(1-(3-(4-Bromophenyl)ureido)-4-isopropyl-2,5-dioxoimidazolidin-4-yl)-N-(2-hydroxyethyl)acetamide], the EC50 worked out at 16.2 nM.

With `CC(C)C1(CC(=O)NCC(=O)OC(C)(C)C)NC(=O)N(NC(=O)Nc2ccc(Br)cc2)C1=O` (stereo not drawn) [Compound 85, tert-Butyl 2-(2-(1-(3-(4-bromophenyl)ureido)-4-isopropyl-2,5-dioxoimidazolidin-4-yl)acetamido)acetate], the EC50 is 302 nM.

In the case of `CC(C)OP(=O)(CNC(=O)CC1(C(C)C)NC(=O)N(NC(=O)Nc2ccc(Br)cc2)C1=O)OC(C)C` (stereo not drawn) [Compound 88, Diisopropyl((2-(1-(3-(4-bromophenyl)ureido)-4-isopropyl-2,5-dioxoimidazolidin-4-yl)acetamido)methyl)phosphonate], the concentration giving a half-maximal response (EC50) was 193 nM.

For `CC(C)C1(CC(=O)NCCC(=O)OC(C)(C)C)NC(=O)N(NC(=O)Nc2ccc(Br)cc2)C1=O` (stereo not drawn) [Compound 91, tert-Butyl 3-(2-(1-(3-(4-bromophenyl)ureido)-4-isopropyl-2,5-dioxoimidazolidin-4-yl)acetamido)propanoate], the EC50 stood at 79.1 nM.

For the molecule `CC(C)C1(CC(=O)NCC(=O)O)NC(=O)N(NC(=O)Nc2ccc(Br)cc2)C1=O` (stereo not drawn) [Compound 92, 2-(2-(1-(3-(4-Bromophenyl)ureido)-4-isopropyl-2,5-dioxoimidazolidin-4-yl)acetamido)acetic acid], the 50% effective concentration (EC50) was determined as 133 nM.

`CC(C)C1(CC(=O)NCCC(=O)O)NC(=O)N(NC(=O)Nc2ccc(Br)cc2)C1=O` (stereo not drawn) [Compound 93, 3-(2-(1-(3-(4-Bromophenyl)ureido)-4-isopropyl-2,5-dioxoimidazolidin-4-yl)acetamido)propanoic acid]: the EC50 came to 5.16 nM.

In the case of `CC(C)C1(CC(=O)NC(C)(C)C(=O)O)NC(=O)N(NC(=O)Nc2ccc(Br)cc2)C1=O` (stereo not drawn) [Compound 95, 2-(2-(1-(3-(4-Bromophenyl)ureido)-4-isopropyl-2,5-dioxoimidazolidin-4-yl)acetamido)-2-methylpropanoic acid], the EC50 came out at 109 nM.

Turning to `CC(C)C1(CC(=O)NCC(N)=O)NC(=O)N(NC(=O)Nc2ccc(Br)cc2)C1=O` (stereo not drawn) [Compound 96, N-(2-Amino-2-oxoethyl)-2-(1-(3-(4-bromophenyl)ureido)-4-isopropyl-2,5-dioxoimidazolidin-4-yl)acetamide], the EC50 stood at 51.3 nM.

Staying with this experiment, now noted: FPRL-1 Ga16-CHO EC50, CHO-Gα16 cells stably expressing FPRL1; calcium activity on FLIPR Tetra; tested at 0.61 to 10,000 nM.
With `CCOP(=O)(CNC(=O)CC1(C(C)C)NC(=O)N(NC(=O)Nc2ccc(Br)cc2)C1=O)OCC` (stereo not drawn) [Compound 86, Diethyl((2-(1-(3-(4-bromophenyl)ureido)-4-isopropyl-2,5-dioxoimidazolidin-4-yl)acetamido)methyl)phosphonate], the EC50 is 272 nM.

As for `CCOP(=O)(O)CNC(=O)CC1(C(C)C)NC(=O)N(NC(=O)Nc2ccc(Br)cc2)C1=O` (stereo not drawn) [Compound 89, Ethyl hydrogen((2-(1-(3-(4-bromophenyl)ureido)-4-isopropyl-2,5-dioxoimidazolidin-4-yl)acetamido)methyl)phosphonate], the EC50 was determined as 313 nM.
